According to US11364275B2, “Linear lipopeptide paenipeptins and methods of using the same” (priority 2017, dated 2022):
Values after ≈ are worked out from the molar mass of the structure shown. “Also recorded” adds a separate entry of the source. Where a SMILES comes first, the peptide text is derived from it. [ ]: non-standard residue; d: D form. The star is where a group is joined. Dab = NCC[C@H](N)C(=O)O; Hexanoyl = CCCCCC(=O)*

Key:
[1] = test system: A. baumannii FDA-CDC AR 0063; assay: Time-kill kinetics in 95% human serum, alone and combined; assay type: cell-based, Acinetobacter baumannii; conditions: A. baumannii AR 0063, 24 h
Procedure: (§1) Bacterial viable counts were determined at 0, 2, 4, 6, and 24 h after antimicrobial treatment. Bacterial surviving counts at 24 h endpoints were subjected to analysis of variance (ANOVA) followed by Tukey's honest significant difference (HSD) tests using SPSS Statistics (version 24; SPSS, Inc., Chicago, Ill., USA).
To further test the therapeutic potential of paenipeptin analogues, the time-kill kinetics assays of paenipeptins alone or in combination with other antibiotics were performed in 95% human serum in vitro. Without antimicrobial treatment, the population of A. baumannii FDA-CDC AR 0063 increased from 5.8 log to 9.3 log within 24 h. […] (FIG. 7A).

[2] = test system: Klebsiella pneumoniae ATCC 13883; assay: MIC of antibiotics with or without paenipeptin analogues (potentiation); assay type: cell-based; conditions: K. pneumoniae ATCC 13883
Excerpt: (§2) Gram-negative bacteria, including Acinetobacter and Klebsiella, are intrinsically resistant to the hydrophobic antibiotic rifampicin.

[3] = test system: Acinetobacter baumannii ATCC 19606; assay: as above; assay type: cell-based; conditions: A. baumannii ATCC 19606
Excerpt: as §2

[4] = test system: K. pneumoniae FDA-CDC AR 0080; conditions: K. pneumoniae AR 0080
[5] = test system: A. baumannii FDA-CDC AR 0052; conditions: FDA-CDC AR 0052
[6] = test system: K. pneumoniae FDA-CDC AR 0068
[7] = test system: Klebsiella pneumoniae ATCC 13883; assay type: cell-based; conditions: ATCC 13883
Procedure: (§3) The minimum inhibitory concentration (MIC) of paenipeptin analogues was determined using the broth microdilution method (Wirker, M. A. Methods for Dilution Antimicrobial Susceptibility Tests for Bacteria that Grow Aerobically: Approved Standard M07-A8; Clinical and Laboratory Standards Institute, Wayne, Pa., 2009). Seven reference strains (Acinetobacter baumannii ATCC 19606, Escherichia coli ATCC 25922, Klebsiella pneumoniae ATCC 13883, Pseudomonas aeruginosa ATCC 27853, Enterococcus faecium ATCC 19434, Staphylococcus aureus ATCC 29213 and methicillin-resistant S. aureus ATCC 43300) were subjected to MIC testing.
(§4) Paenipeptin analogues were two-fold diluted in tryptic soy broth (TSB; Becton Dickinson) and mixed with an equal volume of bacterial suspensions in TSB containing approximately 1.5×10^5 colony-forming units (CFU)/mL in a clear UV-sterilized 96-well microtiter plate (NBS, Corning Inc., Corning, N.Y.). […] The microtiter plate was incubated at 37° C. for 18-20 h.

[8] = test system: K. pneumoniae FDA-CDC AR0097; assay: Time-kill kinetics in 95% human serum, alone and combined; assay type: cell-based, Klebsiella pneumoniae
Procedure: as §1
To further test the therapeutic potential of paenipeptin analogues, the time-kill kinetics assays of paenipeptins alone or in combination with other antibiotics were performed in 95% human serum in vitro.

[9] = test system: K. pneumoniae FDA-CDC AR 0044
[10] = test system: K. pneumoniae FDA-CDC AR 0097; conditions: K. pneumoniae AR 0097
[11] = test system: Escherichia coli ATCC 25922; assay type: cell-based; conditions: ATCC 25922
Procedure: as §3, §4

[12] = test system: K. pneumoniae FDA-CDC AR 0034; conditions: K. pneumoniae AR 0034
[13] = test system: A. baumannii FDA-CDC AR 0063; assay type: cell-based, Acinetobacter baumannii; conditions: FDA-CDC AR 0063, 24 h
Procedure: as §1

[14] = test system: Staphylococcus aureus ATCC 29213; assay type: cell-based; conditions: ATCC 29213
[15] = test system: Pseudomonas aeruginosa ATCC 27853; assay type: cell-based; conditions: ATCC 27853
Procedure: as §3, §4

[16] = test system: rabbit red blood cells; assay: Hemolytic activity; assay type: cell-based; conditions: for Hemolysis: relative to Triton X-100
Summary of the method: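 Washed defibrinated rabbit RBCs in PBS pH 7.2 incubated 30 min at 37 °C with paenipeptin analogues at 16–128 μg/mL final. Released hemoglobin read at 415 nm in the supernatant; % hemolysis relative to 0.1% Triton X-100.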

[17] = test system: Enterococcus faecium ATCC 19434; assay type: cell-based; conditions: ATCC 19434
[18] = test system: Acinetobacter baumannii ATCC 19606; assay type: cell-based; conditions: ATCC 19606
Procedure: as §3, §4

[19] = test system: methicillin-resistant S. aureus ATCC 43300; assay type: cell-based, Staphylococcus aureus; conditions: ATCC 43300
[20] = test system: A. baumannii FDA-CDC AR 0063; conditions: A. baumannii AR 0063
[21] = Cytotoxicity, MTT assay; assay type: cell-based, human; conditions: human, HEK 293 cells
Procedure: Cytotoxicity of paenipeptin analogues was determined against a human kidney cell line (HEK 293) using MTT assays (Huang E, Yousef AE. 2014. Paenibacterin, a novel broad-spectrum lipopeptide antibiotic, neutralises endotoxins and promotes survival in a murine model of Pseudomonas aeruginosa-induced sepsis. Int J Antimicrob Agents 44: 74-77). Cell viability was measured at 24 h following the addition of lipopeptides at concentrations between 30-105 μg/ml. The viability of human embryonic kidney cells (HEK 293) decreased with the increase of paenipeptin concentration. The viability of HEK 293 cells in the presence of paenipeptin analogue 1 and 15 at 105 μg/ml was 61% and 67%, respectively (Table 10). The relatively low cytotoxicity of paenipeptin analogue 1 and 15 was correlated with their low hemolytic activity against red blood cells.

[22] = test system: A. baumannii FDA-CDC AR 0083; conditions: A. baumannii AR 0083
[23] = test system: A. baumannii FDA-CDC AR 0037; conditions: A. baumannii AR 0037
[24] = test system: E. coli UAMS-ECPR1; conditions: E. coli UAMS-ECPR1, polymyxin-resistant
Procedure: (§5) The minimum inhibitory concentration (MIC) of paenipeptin analogues was determined using the broth microdilution method (Wirker, M. A. Methods for Dilution Antimicrobial Susceptibility Tests for Bacteria that Grow Aerobically: Approved Standard M07-A8; Clinical and Laboratory Standards Institute, Wayne, Pa., 2009).
as §4
(§6) There were at least three independent experiments with one replicate in each experiment.

[25] = test system: Escherichia coli AR 0494 (mcr-1); conditions: E. coli AR 0494, mcr-1, polymyxin-resistant
Procedure: as §5, §4, §6

[26] = test system: K. pneumoniae UAMS-KPPR1; assay: MIC, polymyxin-resistant strain; assay type: cell-based, Klebsiella pneumoniae
Procedure: as §3, §4, §6

[27] = test system: Klebsiella pneumoniae AR 0109; conditions: K. pneumoniae AR 0109, polymyxin-resistant
Procedure: as §5, §4, §6

[28] = test system: K. pneumoniae UAMS-KPPR3; assay: MIC, polymyxin-resistant strain; assay type: cell-based, Klebsiella pneumoniae
Procedure: as §3, §4, §6

[29] = test system: E. coli UAMS-ECPR2; conditions: E. coli UAMS-ECPR2, polymyxin-resistant
Procedure: as §5, §4, §6

CCCCCC(=O)N[C@@H](CCN)C(=O)N[C@H](C(=O)N[C@@H](CCN)C(=O)N[C@H](Cc1ccccc1)C(=O)N[C@@H](CC(C)C)C(=O)N[C@@H](CCN)C(=O)N[C@@H](C(=O)N[C@@H](CC(C)C)C(=O)N[C@@H](CO)C(N)=O)C(C)C)[C@@H](C)CC [Analogue 1] (Hexanoyl-[Dab]I[Dab][dF]L[Dab][dV]LS-NH2)
decrease of bacterial population, analogue 4 μg/ml in combination with rifampicin 4 μg/ml [1]: 2.7 log | log reduction, analogue 4 μg/ml in combination with clarithromycin 4 μg/ml [1]: 1.3 log | MIC of rifampicin at 2 μg/mL of paenipeptin analogue [2]: 0.0039 μg/ml | MIC of rifampicin at 4 μg/mL of paenipeptin analogue [2]: 0.00195 μg/ml | MIC of rifampicin at 2 μg/mL of paenipeptin analogue [3]: 0.0078-0.0156 μg/ml | MIC of rifampicin at 4 μg/mL of paenipeptin analogue [3]: 0.00195-0.0039 μg/ml | Sensitization factor (rifampicin) ([3]; MIC without / with 4 μg/mL paenipeptin): 4,096-8,192 | MIC of clarithromycin at the presence of PMBN or paenipeptin analogue at 4 μg/ml [4]: 0.0313 μg/ml | MIC of rifampicin at the presence of PMBN or paenipeptin analogue at 4 μg/ml [4]: 0.0625 μg/ml | MIC alone [5]: 2 to 4 µg/mL | MIC alone ([6]; FDA-CDC AR 0068): >32 µg/mL | MIC of clarithromycin at the presence of PMBN or paenipeptin analogue at 4 μg/ml ([6]; K. pneumoniae AR 0068): 1 μg/ml | MIC of rifampicin at the presence of PMBN or paenipeptin analogue at 4 μg/ml ([6]; K. pneumoniae AR 0068): 0.0039-0.0156 μg/ml | MIC [7]: ≥32 µg/mL | log reduction, analogue 4 μg/ml in combination with clarithromycin 4 μg/ml ([8]; 24 h): 4.9 log | log reduction, analogue 4 μg/ml in combination with rifampicin 4 μg/ml ([8]; 24 h): 4.9 log | log inactivation, single agent at 4 μg/ml ([8]; within 24 h): 4.2 log | MIC alone ([9]; FDA-CDC AR 0044): 16 µg/mL (≈ 14.7 µM) | MIC of clarithromycin at the presence of PMBN or paenipeptin analogue at 4 μg/ml ([9]; K. pneumoniae AR 0044): 0.0156 μg/ml | MIC of rifampicin at the presence of PMBN or paenipeptin analogue at 4 μg/ml ([9]; K. pneumoniae AR 0044): ≤0.0019 μg/ml | MIC of clarithromycin at the presence of PMBN or paenipeptin analogue at 4 μg/ml [10]: 0.0313-0.0625 μg/ml | MIC of rifampicin at the presence of PMBN or paenipeptin analogue at 4 μg/ml [10]: 0.0039-0.0078 μg/ml | MIC [11]: 8 to 16 µg/mL | MIC of clarithromycin at the presence of PMBN or paenipeptin analogue at 4 μg/ml [12]: 0.25 μg/ml | MIC of rifampicin at the presence of PMBN or paenipeptin analogue at 4 μg/ml [12]: ≤0.0019 μg/ml | log reduction, analogue 4 μg/ml in combination with rifampicin 1 μg/ml [13]: 4.7-5.1 log | MIC [14]: >32 µg/mL | MIC [15]: 8 to 16 µg/mL | Hemolysis ([16]; 16 μg/mL): 0.48 ± 0.64% | Hemolysis ([16]; 32 μg/mL): 0.41 ± 0.58% | Hemolysis ([16]; 64 μg/mL): 0.08 ± 0.85% | hemolytic activity (in words) ([16]; 128 μg/mL): little hemolysis; also recorded: nonhemolytic | Hemolysis ([16]; 128 μg/mL): 0.61 ± 0.25% | MIC [17]: >32 µg/mL | MIC [18]: >32 µg/mL | MIC [19]: >32 µg/mL | MIC of clarithromycin at the presence of PMBN or paenipeptin analogue at 4 μg/ml [20]: 0.0313 μg/ml | MIC of rifampicin at the presence of PMBN or paenipeptin analogue at 4 μg/ml [20]: ≤0.0019 μg/ml | viability at 24 h, 30 µg/mL [21]: 85.2 ± 10.2% | viability at 24 h, 45 µg/mL [21]: 78.4 ± 11.2% | viability at 24 h, 60 µg/mL [21]: 78.4 ± 13.5% | viability at 24 h, 75 µg/mL [21]: 73.1 ± 11.3% | viability at 24 h, 90 µg/mL [21]: 69 ± 8.14% | viability at 24 h, 105 µg/mL [21]: 61 ± 6.38% | MIC of clarithromycin at the presence of PMBN or paenipeptin analogue at 4 μg/ml [22]: 16 μg/ml | MIC of rifampicin at the presence of PMBN or paenipeptin analogue at 4 μg/ml [22]: 0.25-0.5 μg/ml | MIC of clarithromycin at the presence of PMBN or paenipeptin analogue at 4 μg/ml [23]: 0.0313 μg/ml | MIC of rifampicin at the presence of PMBN or paenipeptin analogue at 4 μg/ml [23]: 0.0039 μg/ml | increase in antibiotic activity of clarithromycin ([23]; analogue at 4 μg/mL): 512 fold

Polymyxin B [reference compound]
Minimum inhibitory concentration [24]: 32 µg/mL | Minimum inhibitory concentration [25]: 2 to 8 µg/mL | Minimum inhibitory concentration [26]: >32 µg/mL | Minimum inhibitory concentration [27]: 16 to 32 µg/mL | Minimum inhibitory concentration [28]: >32 µg/mL | Minimum inhibitory concentration [29]: 32 µg/mL
